Results as given in US20250312258A1, “2,3-PYRROLIDINEDIONE CONJUGATES AND METHODS OF USING THEREOF” (North Carolina State University, priority 2022, published 2025).
Converted amounts (≈) assume the structure as drawn. Read-outs that look alike come from different tables or passages of the source.

Experiments:
S. aureus (strain HG003) = test: Time-dependent killing of S. aureus (strain HG003); format: cell-based, Staphylococcus aureus; conditions: S. aureus strain HG003, liquid culture, single inoculation, FIG. 2
Source text: FIG. 2 is a plot showing the time-dependent killing of S. aureus (strain HG003) by vancomycin and an example vancomycin-2-3-pyrrolidinedione conjugate (Compound 4).
(§1) With these initial results in hand, the time-dependent killing of bacterial strains by the vancomycin-2-3-pyrrolidinedione conjugates was investigated. FIG. 2 is a plot showing the time-dependent killing of S. aureus (strain HG003) by vancomycin and an example vancomycin-2-3-pyrrolidinedione conjugate (Compound 4, also referred to as AV-273). FIG. 3 is a plot showing the time-dependent killing of MRSA (strain LAC) by vancomycin and an example vancomycin-2-3-pyrrolidinedione conjugate (Compound 4).

MRSA (strain LAC) = test: Time-dependent killing of MRSA (strain LAC); format: cell-based, Staphylococcus aureus; conditions: liquid culture, single inoculation, FIG. 3
Source text: FIG. 3 is a plot showing the time-dependent killing of MRSA (strain LAC) by vancomycin and an example vancomycin-2-3-pyrrolidinedione conjugate (Compound 4).
as §1

MSSA ATCC 25923 biofilm = test: Viable bacteria in supernatant and biofilm after single treatment of MSSA biofilm; format: cell-based, Staphylococcus aureus
Source text: FIG. 5 is a plot showing the effect of a single dose of different concentrations of Compound 4 on the concentration of bacteria in the supernatant over a methicillin-susceptible Staphylococcus aureus (MSSA ATCC 25923). FIG. 6 is a plot showing the time-dependent biofilm population following treatment of a methicillin-susceptible Staphylococcus aureus (MSSA ATCC 25923) biofilm with Compound 4. […] FIG. 5 is a plot showing the effect of a single dose of different concentrations of Compound 4 on the concentration of bacteria in the supernatant over a methicillin-susceptible Staphylococcus aureus (MSSA ATCC 25923). […] FIG. 6 is a plot showing the time-dependent biofilm population following treatment of a methicillin-susceptible Staphylococcus aureus (MSSA ATCC 25923) biofilm with Compound 4.

vanC-1 VRE 49608 = test: MIC against vanC-1 VRE 49608; format: cell-based, Enterococcus spp.; conditions: Enterococcus
S. aureus VRS-2 = test: VRSA thigh infection model in neutropenic mice; format: in vivo, mouse; conditions: 100 mg/kg IP BID q12h; for bacterial count reduction in thigh tissue relative to the vehicle control group: 26 h post-infection, p<0.05
Procedure: (§2) FIG. 8 is a plot comparing the efficacy of linezolid, Compound 4 (AV-0273), and Compound 8 (AV-0267) in the S. aureus VRS-2 thigh infection model, CFU/g thigh. Test animals were rendered neutropenic with cyclophosphamide administration, 150 mg/kg on Day −4 then 100 mg/kg on Day −1 prior to infection on Day 0. On Day 0, animals were intramuscularly inoculated with 8.4×10^4 CFU/mouse (0.1 mL/animal) of the S. aureus VRS-2 strain. The vehicle and the test articles, Compound 4 (AV-0273) and Compound 8 (AV-0267), both at 100 mg/kg, were each intraperitoneally (IP) administered twice with a 12 h interval (BID q12h) at 2 and 14 h after infection. The reference standard, linezolid at 50 mg/kg, was orally (PO) administered BID q12 h starting at 2 h post-infection. Animals were sacrificed at 2 or 26 h post-infection, and the thigh tissues were harvested and weighed from each of the test animals. The bacterial counts (CFU/g thigh) of thigh tissue homogenates were measured.
as §2, with “FIG. 9” for “FIG. 8”, “of linezolid” for “of linezolid,”, “CFU/g thigh, change in bacterial counts relative to baseline count at 26h post-infection. Data represent the change in bacterial counts in thigh tissue following test article treatment relative to the initial 2 h CFU/g thigh or CFU/thigh at the time of dosing (baseline counts).” for “CFU/g thigh.”, “(BID q12 h)” for “(BID q12h)”, “(CFU/g thigh and CFU/thigh)” for “(CFU/g thigh)”, “were compared.” for “were measured.”
Example vancomycin-2,3-pyrrolidinediones conjugates were evaluated using an in vivo tissue infection model with vancomycin resistant MRSA:
Animal model: Murine thigh infection
Bacteria: VRSA (VRS-2). Gram Positive, Staphylococcus aureus (VRSA, VRS-2), Mouse Infected Thigh Model. VRS-2 is VanA producing SCC Mec II st5 train.
Vancomycin conjugates dose: 100 mg/Kg intraperitoneally (IP).
Application: This model assesses the antimicrobial efficacy of test articles in a tissue infection model with vancomycin resistant MRSA. Microbial counts are measured. […]

vanB VRE 51299 = test: MIC against vanB VRE 51299; format: cell-based, Enterococcus spp.; conditions: Enterococcus
VRSA = conditions: S. aureus VRS-2; cited from earlier work

Compound | time-dependent killing profile (S. aureus (strain HG003)) | time-dependent killing profile (MRSA (strain LAC)) | single dose at which no viable bacterial cells were detected in the treatment supernatant (MSSA ATCC 25923 biofilm; MSSA ATCC 25923, detection limit 10^2, FIG. 5) | viable biofilm-embedded bacterial cells (MSSA ATCC 25923 biofilm; MSSA ATCC 25923 biofilm, 24 hours after a single treatment at twice the MBEC, FIG. 6) | MIC (vanC-1 VRE 49608; VRE, the 2nd table, read-out: MIC (vanC-1 VRE 49608)) | MIC (vanC-1 VRE 49608; vanC-1 VRE 49608, the 3rd table, read-out: MIC) | bacterial count reduction in thigh tissue relative to the vehicle control group (S. aureus VRS-2) | effect relative to the baseline control (S. aureus VRS-2; FIG. 9) | MIC (vanB VRE 51299; VRE, the 2nd table, read-out: MIC (vanB VRE 51299)) | MIC (vanB VRE 51299; vanB VRE 51299, the 3rd table, read-out: MIC) | MIC of vancomycin for VRS-2 (strain description) (VRSA) | antibiotic resistance profile of VRS-2: vancomycin (VRSA) | MIC (vanC-1 VRE 49608; VRE) | MIC (vanC-1 VRE 49608; VRE, read-out: MIC (vanC-1 VRE 49608)) | MIC (vanB VRE 51299; VRE) | MIC (vanB VRE 51299; VRE, read-out: MIC (vanB VRE 51299))
CCC1C(c2ccc(C(F)(F)F)cc2)=C(O)C(=O)N1C1CCC(NC)CC1 (centres unmarked) [Compound 4] | roughly matched vancomycin at the same concentration | roughly matched vancomycin at the same concentration | at least 16 μg/mL | no viable biofilm-embedded bacterial cells were detected | 0.5 µg/mL (≈ 1.31 µM) | 0.5 µg/mL (≈ 1.31 µM) | 100% | bacteriostatic effect | 2 µg/mL (≈ 5.23 µM) | 2 µg/mL (≈ 5.23 µM) | – | – | – | – | – | –
CCC1C(c2ccc(C(F)(F)F)cc2)=C(O)C(=O)N1CCCNCCCCNC (centres unmarked) [Compound 8] | – | – | – | – | – | – | 100% | – | – | – | – | – | – | – | – | –
CN[C@H](CC(C)C)C(=O)N[C@H]1C(=O)N[C@@H](CC(N)=O)C(=O)N[C@H]2C(=O)N[C@H]3C(=O)N[C@H](C(=O)N[C@H](C(=O)O)c4cc(O)cc(O)c4-c4cc3ccc4O)[C@H](O)c3ccc(c(Cl)c3)Oc3cc2cc(c3O[C@@H]2O[C@H](CO)[C@@H](O)[C@H](O)[C@H]2O[C@H]2C[C@](C)(N)[C@H](O)[C@H](C)O2)Oc2ccc(cc2Cl)[C@H]1O [Vancomycin, vancomycin, reference compound] | – | – | – | – | – | – | – | – | – | – | > 64 µg/mL | > 64 µg/mL | 32 µg/mL (≈ 22.1 µM) | 32 µg/mL (≈ 22.1 µM) | 256 µg/mL (≈ 177 µM) | 256 µg/mL (≈ 177 µM)
